We go through ten compounds from PubChem BioAssay (NCI).

Experiment in all cases: NCI tumour cell line growth inhibition, 48 h
For assay [1], the system named is HCT-15 colon.
In assay [2] the test system is RPMI-8226 leukemia.
Assay [3] deals with NCI/ADR-RES ovarian.
The subject of assay [4] is ACHN renal.
Assay [5] deals with SF-539 CNS.
For assay [6], the system named is HT29 colon.
Assay [7] relates to OVCAR-3 ovarian.
Assay [8] has as its system LOX IMVI melanoma.
The subject of assay [9] is SK-MEL-2 melanoma.
Assay [10] relates to COLO 205 colon.
The test system of assay [11] is SK-MEL-28 melanoma.
For assay [12], the system named is CCRF-CEM leukemia.
Assay [13] has as its system U251 CNS.
Assay [14] concerns CAKI-1 renal.
For assay [15], the system named is DU-145 prostate.
Assay [16] relates to OVCAR-8 ovarian.
Assay [17] deals with HS 578T breast.

Molecules are shown by their SMILES.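 Results reflect a 48-hour exposure of cells in 96-well plates to compound at five concentrations. TGI: total growth inhibition.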

For `Cn1c2ccccc2c(=O)c2[nH]c3ccccc3c21`, the TGI in assay [1], in assay [2], in [3], in [4], in assay [5] and in assay [6] was above 100 µM in each case. Besides, the TGI in [7] is above 100 µM; in [8], above 100 µM; in [9], above 100 µM; in [10], above 100 µM; in assay [11] it was 59.5 µM; in assay [12], above 100 µM. Also, the TGI in assay [13], in assay [14], in [15] and in [16] was above 100 µM in each case.
Take `CC(=O)C1=CCC2c3[nH]c4ccccc4c3CCN2C1` (stereo not drawn): the TGI in assay [1], in [4], in assay [5], in [6], in assay [7] and in [8] was above 100 µM throughout. The TGI in assay [9], in assay [10], in [11], in assay [12], in [13] and in [16] was above 100 µM each time.
Regarding `Cc1ccc(S(=O)(=O)c2c(N)n(CCN(C)C)c3nc4ccccc4nc23)cc1`, the TGI in assay [1], in assay [2], in assay [4], in assay [5], in assay [6] and in assay [7] was above 100 µM in each case. Also, the TGI in assay [9], in [10], in assay [11], in assay [12], in assay [13] and in assay [16] was above 100 µM each time.
For the compound `N#CC(C#N)=Cn1c(=S)[nH]c2ccccc21`, the TGI in [2], in assay [3], in assay [4], in assay [5], in [6] and in assay [7] was above 100 µM throughout. For the same compound, the TGI in [8], in assay [9], in assay [10], in assay [11], in [12] and in assay [13] was above 100 µM in each case. Moreover, the TGI in assay [14], in assay [15], in assay [17] and in [16] was above 100 µM throughout.
With `O=C1Oc2cc3c(c4cccc1c24)O[C@H](c1ccccc1)[C@@H](c1ccccc1)[C@@H]3c1ccc(Cl)cc1`, the TGI in [1], in [2], in [3], in [4], in assay [5] and in assay [6] was above 100 µM each time. Also, the TGI was above 100 µM in assay [7]; above 100 µM in [8]; above 100 µM in assay [10]; above 100 µM in [11]; above 100 µM in assay [12]; 50.1 µM in assay [13]. The TGI was above 100 µM in assay [14], above 100 µM in assay [15], above 100 µM in assay [17] and 95.8 µM in assay [16].
As to `O=C1NC2(CCN(CCCC3(c4ccc(F)cc4)OCCO3)CC2)Oc2ccccc21`, the TGI in assay [1], in [2], in [3], in [4], in [5] and in [6] was above 100 µM in each case. In addition, the TGI in assay [8], in assay [10], in [11], in assay [12], in assay [13] and in assay [15] was above 100 µM throughout. This compound yielded a TGI in assay [16] above 100 µM.
As to `CC(CCCOC(c1ccccc1)(c1ccccc1)c1ccccc1)OC(=O)Nc1ccccc1` (stereo not drawn), the TGI in [1] was 27.9 µM; in [2], 42.1 µM; in [4] it was 26.5 µM; in [5] it was 31.7 µM; in assay [6], 25.8 µM; in assay [7] it was 26.9 µM. Also, the TGI in [8] stood at 25.3 µM; in assay [10] it was 32.3 µM; in assay [11] it was 28.7 µM; in [12] it was 33.1 µM; in assay [13] it was 26.8 µM; in assay [14], 26.8 µM. Further, in assay [16], the TGI was found to be 27.1 µM.
As for `CN(C)Cc1cc(C(C)(C)C)cc(C2CCCCC2)c1O`, the TGI turned out to be 28.6 µM in assay [1]; 44.4 µM in assay [3]; 28.9 µM in [4]; 22.8 µM in [5]; 13.5 µM in assay [6]; 28.3 µM in assay [7]. Besides, the TGI worked out at 28.5 µM in assay [8]; 35 µM in [9]; 27.2 µM in assay [10]; 26.3 µM in assay [11]; 27.1 µM in assay [12]; 27.4 µM in assay [13]. The TGI in assay [14] is 35 µM; in assay [15], 27.8 µM; in [17], 33.9 µM; in assay [16], 26.4 µM.
Consider `C=CCN1CN(c2ccccc2)C2(CCN(CCCC3(c4ccc(F)cc4)OCCO3)CC2)C1=O`, for which the TGI stood at 25.7 µM in [1]; 34.2 µM in assay [2]; 28.2 µM in assay [3]; 48.3 µM in [4]; 23.1 µM in [5]; 20.4 µM in assay [6]. Also, the TGI in [7] came out at 27.7 µM; in [8] it was 34.5 µM; in assay [10], 37.9 µM; in [11], 30.8 µM; in assay [12], 41.4 µM; in assay [13] it was 29.4 µM. Moreover, the TGI in assay [14] worked out at 75.6 µM; in assay [15] it was 61.1 µM; in [16] it was 32.5 µM.
On to `Cc1ccc(NC(=O)C(=O)Cc2cc[n+]([O-])cc2)cc1`, for which the TGI in assay [1], in [2], in assay [4], in assay [5], in [6] and in assay [7] was above 100 µM throughout. Further, the TGI in assay [8], in assay [9], in assay [10], in assay [11], in assay [12] and in assay [13] was above 100 µM throughout. For the same compound, the TGI in [14] and in assay [16] was above 100 µM each time.
